Test: refractive index (Na D-line) (dimensionless); xn = mol fraction of the nth substance listed
Conditions: 101 kPa, Liquid

CCCCCCn1cc[n+](C)c1.F[P-](F)(F)(F)(F)F [1-hexyl-3-methylimidazolium hexafluorophosphate] + CCCCOC(C)=O
refractive index, Standard Abbe refractometry
Conditions | 293.15 K | 298.15 K | 303.15 K | 308.15 K | 313.15 K | 318.15 K | 323.15 K
x1 = 0.0956 | 1.40012 | 1.39835 | 1.39654 | 1.39469 | 1.39293 | 1.39102 | 1.38925
x1 = 0.1919 | 1.40555 | 1.40397 | 1.40209 | 1.40028 | 1.39856 | 1.39677 | 1.39495
x1 = 0.273 | 1.40899 | 1.40746 | 1.40564 | 1.40392 | 1.40223 | 1.40049 | 1.39879
x1 = 0.3698 | 1.41222 | 1.41064 | 1.40899 | 1.40735 | 1.40568 | 1.40401 | 1.40239
x1 = 0.4639 | 1.41432 | 1.41299 | 1.41138 | 1.40987 | 1.40837 | 1.40682 | 1.40529
x1 = 0.5701 | 1.41616 | 1.41482 | 1.41349 | 1.41215 | 1.41074 | 1.40945 | 1.40808
x1 = 0.6787 | 1.41768 | 1.41633 | 1.41519 | 1.41385 | 1.41265 | 1.41139 | 1.41024
x1 = 0.7746 | 1.41841 | 1.41727 | 1.41623 | 1.41512 | 1.41392 | 1.41269 | 1.41151
x1 = 0.8707 | 1.41937 | 1.41819 | 1.41713 | 1.41606 | 1.41477 | 1.41373 | 1.41268
x1 = 0.9354 | 1.41972 | 1.41876 | 1.41773 | 1.41651 | 1.41522 | 1.41386 | 1.41261
x1 = 1 | 1.42064 | 1.41935 | 1.41806 | 1.41676 | 1.41547 | 1.41417 | 1.41288

CCCCCCn1cc[n+](C)c1.F[P-](F)(F)(F)(F)F [1-hexyl-3-methylimidazolium hexafluorophosphate] + CCOC(C)=O
refractive index
Conditions | 293.15 K | 298.15 K | 303.15 K | 308.15 K | 313.15 K | 318.15 K | 323.15 K
x1 = 0.09053 | 1.38737 | 1.38598 | 1.38515 | 1.38415 | 1.38344 | 1.38227 | 1.38202
x1 = 0.1751 | 1.39825 | 1.39706 | 1.39611 | 1.39519 | 1.39414 | 1.39389 | 1.39323
x1 = 0.2748 | 1.40432 | 1.40351 | 1.402 | 1.40105 | 1.40023 | 1.39983 | 1.3989
x1 = 0.3638 | 1.40809 | 1.40694 | 1.40594 | 1.40487 | 1.40397 | 1.40319 | 1.40308
x1 = 0.4747 | 1.41069 | 1.40989 | 1.40899 | 1.40784 | 1.40699 | 1.40607 | 1.40548
x1 = 0.5959 | 1.41247 | 1.41194 | 1.41159 | 1.41107 | 1.40998 | 1.4091 | 1.4082
x1 = 0.6988 | 1.41456 | 1.41432 | 1.41357 | 1.41273 | 1.41182 | 1.41087 | 1.40995
x1 = 0.7782 | 1.41641 | 1.41609 | 1.41526 | 1.41451 | 1.41389 | 1.41215 | 1.41181
x1 = 0.8784 | 1.41817 | 1.41813 | 1.41735 | 1.41622 | 1.41498 | 1.41315 | 1.41252
x1 = 0.9562 | 1.42009 | 1.41886 | 1.41756 | 1.41629 | 1.41507 | 1.41377 | 1.41258
x1 = 1 | 1.42064 | 1.41935 | 1.41806 | 1.41676 | 1.41547 | 1.41417 | 1.41288

CCCCCCCC[n+]1ccn(C)c1.F[P-](F)(F)(F)(F)F [1-octyl-3-methylimidazolium hexafluorophosphate] + CCCCOC(C)=O
refractive index
Conditions | x1 = 0.1078 | x1 = 0.2016 | x1 = 0.3056 | x1 = 0.3855 | x1 = 0.4815 | x1 = 0.5918 | x1 = 0.6857 | x1 = 0.7784 | x1 = 0.8946 | x1 = 1
293.15 K | 1.40113 | 1.40658 | 1.41215 | 1.41536 | 1.41829 | 1.42036 | 1.42188 | 1.42339 | 1.42502 | 1.42649
298.15 K | 1.39916 | 1.40486 | 1.41053 | 1.41402 | 1.41692 | 1.41924 | 1.42067 | 1.42219 | 1.42373 | 1.42512
303.15 K | 1.39682 | 1.40307 | 1.40886 | 1.41241 | 1.41546 | 1.41801 | 1.41931 | 1.42073 | 1.42217 | 1.42376
308.15 K | 1.39502 | 1.40132 | 1.40721 | 1.41099 | 1.41402 | 1.41668 | 1.41801 | 1.41955 | 1.42089 | 1.4224
313.15 K | 1.39308 | 1.39963 | 1.40556 | 1.40944 | 1.41256 | 1.41529 | 1.41687 | 1.41835 | 1.41966 | 1.42103
318.15 K | 1.39114 | 1.39793 | 1.40399 | 1.40796 | 1.41132 | 1.41404 | 1.41575 | 1.41726 | 1.41848 | 1.41967
323.15 K | 1.38914 | 1.39622 | 1.40245 | 1.40652 | 1.41001 | 1.41272 | 1.41456 | 1.41606 | 1.41731 | 1.41831

CCCCCCCC[n+]1ccn(C)c1.F[P-](F)(F)(F)(F)F [1-octyl-3-methylimidazolium hexafluorophosphate] + CCOC(C)=O
refractive index
Conditions | x1 = 0.1056 | x1 = 0.2064 | x1 = 0.308 | x1 = 0.4094 | x1 = 0.4991 | x1 = 0.5916 | x1 = 0.694 | x1 = 0.8121 | x1 = 0.8895 | x1 = 1
293.15 K | 1.38873 | 1.40004 | 1.40816 | 1.41301 | 1.41629 | 1.41842 | 1.4208 | 1.42285 | 1.42447 | 1.42649
298.15 K | 1.38754 | 1.39899 | 1.40705 | 1.41196 | 1.41523 | 1.41771 | 1.41971 | 1.42189 | 1.42354 | 1.42512
303.15 K | 1.38545 | 1.39759 | 1.40552 | 1.41088 | 1.41385 | 1.41655 | 1.41878 | 1.42063 | 1.42188 | 1.42376
308.15 K | 1.38383 | 1.39634 | 1.40439 | 1.40952 | 1.41311 | 1.41557 | 1.41792 | 1.42016 | 1.42072 | 1.4224
313.15 K | 1.38267 | 1.39498 | 1.40318 | 1.40842 | 1.41186 | 1.41447 | 1.41699 | 1.41906 | 1.41956 | 1.42103
318.15 K | 1.38145 | 1.39381 | 1.40208 | 1.40767 | 1.41108 | 1.41348 | 1.41612 | 1.41805 | 1.41852 | 1.41967
323.15 K | 1.38027 | 1.39276 | 1.40106 | 1.40658 | 1.41002 | 1.41266 | 1.41504 | 1.41746 | 1.41744 | 1.41831

Source: the NIST ThermoML archive (doi:10.1016/j.jct.2014.01.012)
